Results reported in patent publication US20260243776A1, “A METHOD FOR DETECTING PROTEIN TARGETS OF AN ENZYME USING A BIOTIN LIGASE” (Leibniz-Institut für Alternsforschung - …, priority 2022, published 2026).
Residues, ends and D or L forms follow the SMILES beside them. *: point of attachment. Cbz = O=C(OCc1ccccc1)*

Tests used:
proteasome = experiment: Proximity labeling (BioID) with PSMA4-miniTurbo, streptavidin enrichment and DIA mass spectrometry, with proteasome inhibition; format: cell-based, Homo sapiens
Method: For the “BioID” experiments, HEK293T lines were seeded at the density of approximately 1.6×10^4 cells/cm2 and incubated for 24 hours to allow cell attachment to the culture dish. The expression of BirA* or miniTurbo fusion proteins were induced by a single addition of tetracycline stock (solved in ethanol) exposing the cells to its final concentration of […] in total for 4 days. 2 hours (miniTurbo lines) or 24 hours (BirA* lines) prior to cell harvesting, 50 μM biotin was added to the culture media. For identification of proteasome substrates, PSMA4-miniTurbo or miniTurbo expressing cells were treated with 20 μM MG132 for 4 hours and/or 10 μM KB02-JQ1 for 12 hours. Upon treatment, cells were washed 3×times with PBS and harvested by trypsinization. For each sample, a pellet corresponding to 20 million cells was collected and snap-frozen in liquid nitrogen.
Cell pellets were thawed on ice were resuspended in 4.75 ml of BioID lysis buffer (50 mM Tris pH 7.5; 150 mM NaCl; 1 mM EDTA; 1 mM EGTA; 1% (v/v) Triton X-100; 1 mg/ml aprotinin; 0.5 mg/ml leupeptin; 250 U turbonuclease; 0.1% (w/v) SDS), followed by 1 hour incubation in the rotator mixer (STARLAB RM Multi-1) (15×rpm) at 4° C. to aid the lysis. Samples were then briefly sonicated in a Bioruptor Plus for 5 cycles (30 s ON/30 s OFF) at high setting and afterwards centrifuged at 20817×g, for 30 minutes at 4° C. to remove any debris.
Streptavidin coated Sepharose beads were acetylated by two successive treatments with 10 mM Sulfo-NHS-Acetate for 30 minutes at room temperature. The reaction was then quenched with 1 M Tris pH 7.5 (1:10 v/v) and then the beads were washed with 1×PBS and centrifuged at 2000×g for 1 minute at room temperature. This washing was performed 3 times in total. Cleared lysates were transferred to new tubes, 50 μl of acetylated beads added, and samples were incubated for 3 hours on the rotator (15×rpm) at 4° C. This was followed by centrifugation at 2000×g for 5 minutes at 4° C. and removal of 4.5 ml of the supernatant from each sample. […]

[1] = tested on: proteasome chymotrypsin-like activity; experiment: Proteasome activity assay (LLVY-AMC cleavage) on cell lysates; format: cell-based, Homo sapiens; settings: lysates of HEK293T lines expressing BirA* fusion proteins or BirA* control; 24 hours with vs without tetracycline
Method: Proteasome activity assay: The proteasome activity assay (PAA) was performed using the 20S proteasome activity assay kit (Millipore, APT280) following the manufacturer instructions. In short, cell pellets were thawed in ice-cold lysis buffer (50 mM HEPES pH 7.5; 5 mM EDTA; 150 mM NaCl; 1% (v/v) Triton X-100; 2 mM ATP) and left on ice for 30 minutes with short vortex steps (VWR international, VWR/444-1372) every 10 minutes. Samples were centrifuged at 20817×g, for 15 minutes at 4° C. to remove any debris. For protein amount estimation the EZQ Protein Quantitation Kit (Invitrogen, R33200) was used. 50 μg of protein extract were incubated with fluorophore-linked peptide substrate (LLVY-7-amino-4-methylcoumarin, AMC) for 60 minutes at 37° C. Proteasome activity was measured by quantification of fluorescent units from cleaved AMC at 380/460 nm using a microplate reader m1000 (Tecan).

Structure (SMILES)	impact on the biotinylated proteins quantified by mass spectrometry (principal component analysis) (proteasome; HEK293T PSMA4-miniTurbo, 20 μM MG132 4 hours)	number of proteins enriched relative to miniTurbo control only in presence of MG132 (potential proteasome substrates) (proteasome; HEK293T PSMA4-miniTurbo, 20 μM MG132 4 hours, log 2 fold change>1 and Q value<0.05) [proteins]	enrichment of proteasome activators and ubiquitin in streptavidin pull downs, MG132-treated versus control cells (proteasome; HEK293T cells expressing PSMA4-miniTurbo, 20 μM MG132 for 4 hours, biotin 2 hours)	reduction of proteasome activity following addition of tetracycline [1]
CC(C)C[C@@H](C=O)NC(=O)[C@H](CC(C)C)NC(=O)[C@H](CC(C)C)NC(=O)OCc1ccccc1 [MG132] (Cbz-Leu-Leu-Leu-aldehyde)	clear impact	296	prominent enrichment of proteasome activators and ubiquitin	–
CN(C)[C@@H]1C(O)=C(C(N)=O)C(=O)[C@@]2(O)C(O)=C3C(=O)c4c(O)cccc4[C@@](C)(O)[C@H]3C[C@@H]12 [tetracycline]	–	–	–	15-20%
